34 molecules from the Biogen ADME set (Fang et al. 2023) can be followed below.

For this data set the following is noted: for aqueous solubility: pH 6.8.

The structures appear in SMILES notation. In brackets after ≈: the same amount, converted by molar mass.

Consider `COc1ccccc1-c1nc(C(=O)O)cs1`, for which the MDR1-MDCK efflux ratio was 0.649; the intrinsic clearance, human liver microsomes is ≤ 4.74 mL/min/kg; the intrinsic clearance, rat liver microsomes was ≤ 10.7 mL/min/kg; the aqueous solubility was 54.6 µg/mL (≈ 232 µM).
`COc1ccc(-n2cc3c(c2-c2ccccc2Br)c(=O)n(C)c(=O)n3C)cc1`: the MDR1-MDCK efflux ratio is 0.946; the intrinsic clearance, human liver microsomes was 37.5 mL/min/kg; the intrinsic clearance, rat liver microsomes was 521 mL/min/kg; the aqueous solubility is 4.92 µg/mL (≈ 11.2 µM).
Taken in the same sequence, the figures for `O=C(Cc1cccc2ccccc12)NCc1nnc2n1-c1ccccc1CC2` were 45, 239 mL/min/kg, 1730 mL/min/kg and 46.7 µg/mL (≈ 127 µM).
The molecule `COc1ccc(C2=N/C(=C/c3cc4ccccc4n3C(C)=O)C(=O)O2)cc1` had an aqueous solubility of 2.34 µg/mL (≈ 6.49 µM).
Consider `Cc1cc(CN2CCC(N(C)c3ncc(Cl)cn3)CC2)on1`, for which the MDR1-MDCK efflux ratio was 0.58; the intrinsic clearance, human liver microsomes turned out to be 16 mL/min/kg; the intrinsic clearance, rat liver microsomes stood at 127 mL/min/kg.
Taken in the same sequence, the figures for `COc1cc2nc(CN3CCC(CO)CC3)[nH]c(=O)c2cc1OC` were 29, ≤ 4.74 mL/min/kg and ≤ 10.7 mL/min/kg.
On the same counts, the results for `Cc1cc(Nc2nc(N[C@@H](C)c3ncc(F)cn3)ncc2Cl)n[nH]1` are 10.5, 8.47 mL/min/kg and 46.3 mL/min/kg.
As to `CN(Cc1ccc(Cl)cc1)C(=O)c1ccc(-n2ccnc2)nc1`, the MDR1-MDCK efflux ratio is 1.08; the intrinsic clearance, human liver microsomes is ≤ 4.74 mL/min/kg; the intrinsic clearance, rat liver microsomes worked out at 46.4 mL/min/kg; the aqueous solubility amounted to 65.1 µg/mL (≈ 199 µM).
Taken in the same sequence, the figures for `Cc1noc([C@@H]2C[C@H](NC(=O)c3ccc(F)cc3)CN2C)n1` were 0.792, 6.88 mL/min/kg, 16.3 mL/min/kg and 16.2 µg/mL (≈ 53.2 µM).
Turning to `NC(=O)Cc1nc(-c2ccc(Cl)cc2Cl)cs1`, the aqueous solubility worked out at 41 µg/mL (≈ 143 µM).
Consider `COc1ccc(NC(=O)c2snnc2C)c(OC)c1`, for which the MDR1-MDCK efflux ratio worked out at 0.521; the intrinsic clearance, human liver microsomes came to 34.2 mL/min/kg; the intrinsic clearance, rat liver microsomes turned out to be 182 mL/min/kg; the aqueous solubility was 3.67 µg/mL (≈ 13.1 µM).
As for `O=C(Cc1cccc2ccccc12)NCc1ccc(N2CCCC2=O)cc1`, the aqueous solubility was found to be 14.1 µg/mL (≈ 39.4 µM).
Regarding `COc1cccc(-n2c(S)nnc2COc2cccc3ccccc23)c1`, the MDR1-MDCK efflux ratio is 1.07 and the aqueous solubility was 0.26 µg/mL (≈ 0.715 µM).
For `CC(=O)NCCNc1cc(Cl)nn2c(-c3cccc(S(=O)(=O)N(C)C)c3)c(C)nc12`, the MDR1-MDCK efflux ratio is 67.7; the fraction unbound, human plasma is 0.048; the intrinsic clearance, human liver microsomes amounted to 228 mL/min/kg; the intrinsic clearance, rat liver microsomes came out at 797 mL/min/kg. The molecule also returned an aqueous solubility of 45.8 µg/mL (≈ 102 µM).
Turning to `O=C(c1noc2c1CCCC2)N1CCN(c2ncccn2)CC1`, the MDR1-MDCK efflux ratio turned out to be 0.624; the intrinsic clearance, human liver microsomes is 10.3 mL/min/kg; the intrinsic clearance, rat liver microsomes was 2910 mL/min/kg; the aqueous solubility was 53.3 µg/mL (≈ 170 µM).
Taken in the same sequence, the figures for `O=c1[nH]c2cnccc2n1Cc1ccccc1` were 1.55, ≤ 4.74 mL/min/kg, 47.9 mL/min/kg and 31.5 µg/mL (≈ 140 µM).
Consider `FC(F)(F)c1ccc(Nc2nc3cc(Oc4ccnc(-c5ncc(C(F)(F)F)[nH]5)c4)ccc3[nH]2)cc1`, for which the MDR1-MDCK efflux ratio worked out at 0.86 and the aqueous solubility turned out to be 0.35 µg/mL (≈ 0.694 µM).
On the same counts, the results for `Cc1ccc(CC(=O)NCc2cccc(C(=O)Nc3ccccc3)c2)cc1` are 1.52 and 0.38 µg/mL (≈ 1.06 µM).
In turn, `CCN(CC)CCCNc1c2c(nc3ccccc13)CCC2` displayed an aqueous solubility of 25.4 µg/mL (≈ 85.6 µM).
Take `O=c1oc2cccnc2n1Cc1ncc(-c2ccc(F)cc2)o1`: the MDR1-MDCK efflux ratio amounted to 2.86; the intrinsic clearance, human liver microsomes was ≤ 4.74 mL/min/kg; the intrinsic clearance, rat liver microsomes is ≤ 10.7 mL/min/kg.
On to `O=C(NC1CCNCC1)c1ccc2[nH]ncc2c1`, for which the MDR1-MDCK efflux ratio worked out at 0.239; the fraction unbound, human plasma was 0.696; the fraction unbound, rat plasma came to 0.845; the intrinsic clearance, human liver microsomes is 25.9 mL/min/kg.
Turning to `Cc1ccc(CN)c(-n2cc(Cl)cn2)n1`, the MDR1-MDCK efflux ratio turned out to be 0.396; the intrinsic clearance, human liver microsomes was ≤ 4.74 mL/min/kg; the intrinsic clearance, rat liver microsomes turned out to be 27.4 mL/min/kg.
In the case of `Fc1cccc(CCNCc2cc(-c3ccccc3)cn3nnnc23)c1`, the MDR1-MDCK efflux ratio was 0.71; the intrinsic clearance, human liver microsomes was 190 mL/min/kg; the intrinsic clearance, rat liver microsomes amounted to 1720 mL/min/kg; the aqueous solubility worked out at 13.7 µg/mL (≈ 39.5 µM).
Take `O=C(c1cc(F)ccc1O)N1CCN(C2CCOCC2)CC1`: the intrinsic clearance, human liver microsomes is ≤ 4.74 mL/min/kg and the intrinsic clearance, rat liver microsomes is 201 mL/min/kg.
As to `CNCc1cc(N(C)C)nc(C2CCCN2C(=O)c2ccccc2-c2ccccc2)n1` (stereo unspecified), the MDR1-MDCK efflux ratio was determined as 65.4; the intrinsic clearance, human liver microsomes was 30.8 mL/min/kg; the intrinsic clearance, rat liver microsomes came to 228 mL/min/kg.
Taken in the same sequence, the figures for `CN(CC1CCC1)C(=O)C1CCN(c2ccc3nncn3n2)CC1` were 11.6, 7.72 mL/min/kg and 126 mL/min/kg.
In turn, `CNC(=O)C1(Cc2ccc(-c3ccncc3)cc2)CCN(Cc2cccc(F)c2)C1` (stereo unspecified) came in with a fraction unbound, human plasma of 0.127; a fraction unbound, rat plasma of 0.0519; an intrinsic clearance, human liver microsomes of 250 mL/min/kg; an intrinsic clearance, rat liver microsomes of 891 mL/min/kg. The same molecule showed an aqueous solubility of 57.5 µg/mL (≈ 143 µM).
As for `CCCn1cc(CN2CCC(c3nc(N(C)C)no3)CC2)cn1`, the MDR1-MDCK efflux ratio amounted to 1.14; the intrinsic clearance, human liver microsomes came to 21 mL/min/kg; the intrinsic clearance, rat liver microsomes is 146 mL/min/kg.
In the case of `CCCC(=O)Nc1ccc(-n2cccn2)nc1`, the MDR1-MDCK efflux ratio worked out at 0.559; the intrinsic clearance, human liver microsomes is ≤ 4.74 mL/min/kg; the intrinsic clearance, rat liver microsomes was 31.8 mL/min/kg; the aqueous solubility is 45.2 µg/mL (≈ 196 µM).
For `O=C(O)c1cnn(-c2nc3cc(Cl)c(OC(F)(F)F)cc3[nH]2)c1`, the MDR1-MDCK efflux ratio is 1.05; the intrinsic clearance, human liver microsomes was ≤ 4.74 mL/min/kg; the intrinsic clearance, rat liver microsomes is ≤ 10.7 mL/min/kg.
As for `O=C(CSCCc1ccncc1)Nc1ccccc1`, the MDR1-MDCK efflux ratio was 0.805; the intrinsic clearance, human liver microsomes is 19.6 mL/min/kg; the intrinsic clearance, rat liver microsomes is 429 mL/min/kg.
`CCC(=O)N1CCCC(C(=O)N2CCc3c(Cl)cc(Cl)cc3C2C)C1` (stereo unspecified): the intrinsic clearance, human liver microsomes came out at 416 mL/min/kg; the intrinsic clearance, rat liver microsomes turned out to be 1510 mL/min/kg; the aqueous solubility came to 54.8 µg/mL (≈ 143 µM).
Consider `O=C(CN1CCOC(c2ccc(F)cc2)C1)Nc1ccccc1OC(F)F` (stereo unspecified), for which the MDR1-MDCK efflux ratio was determined as 0.589; the intrinsic clearance, human liver microsomes came to 93.6 mL/min/kg; the intrinsic clearance, rat liver microsomes turned out to be 566 mL/min/kg; the aqueous solubility came to 23.1 µg/mL (≈ 60.7 µM).
Regarding `CCCC(=O)Nc1ccc(C(=O)N(C)C)cc1`, the MDR1-MDCK efflux ratio stood at 1.41; the intrinsic clearance, human liver microsomes amounted to 22.2 mL/min/kg; the intrinsic clearance, rat liver microsomes came out at 50.7 mL/min/kg.
